Among the data in patent US9834571B2, “Compounds for inhibiting cell proliferation in EGFR-driven cancers” (ARIAD Pharmaceuticals, Inc., priority 2012, dated 2017) are IC50 and GI50 values, retold here.

For one assay, the target named is EGFR L858R/T790M (Homo sapiens, UniProt P00533, L858R/T790M). In words: Kinase inhibitory activity against EGFR bearing the L858R/T790M double mutation. As to conditions: 10 pt curves, 3 μM top concentration, 10 μM ATP; read-out: IC50 for kinase inhibition, EGFR L858R T790M. It is filed as biochemical. The procedure, abridged: (§1)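 Each assay used 10 μM ATP. Inhibitors were tested as 10-point curves, highest concentration 3 μM, no replicates.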

Another assay deals with EGFR L858R (Homo sapiens, UniProt P00533, L858R). In words: Kinase inhibitory activity against EGFR bearing the L858R mutation. It is filed as biochemical. As to conditions: 10 pt curves, 3 μM top concentration, 10 μM ATP; read-out: IC50 for kinase inhibition, EGFR L858R. The procedure, abridged: as §1
The target in assay [1] is T1, BaF3 cells expressing the target EGFR mutations (Homo sapiens, UniProt P00533, T790M/L858R, cells depend on it).
T1 construct: IC50, BAF3 EGFR L858R-T790M PURO POOL; other: BAF3 EGFR L858R-T790M PURO POOL cells, MTT; IC50, BAF3 EGFR L858R-T790M PURO POOL; other: BAF3 EGFR L858R-T790M PURO POOL cells; MTT
In words: Antiproliferative activity (MTT) against BaF3 cells expressing the target EGFR mutations. It is filed as cell-based. To be noted: BAF3 EGFR L858R-T790M PURO POOL cells, read-out: IC50, BAF3 EGFR L858R-T790M PURO POOL. The procedure, abridged:
(§2)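 Viability by MTT colorimetry. Cells: BaF3 transfected with mutant EGFR, plus a wildtype-EGFR BaF3 counter-screen.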

For assay [2], the target named is T2, BaF3 cells expressing the target EGFR mutations (Homo sapiens, UniProt P00533, T790M, cells depend on it, form not given).
T2 construct: IC50, BAF3 EGFR DEL T790M PURO POOL; other: BAF3 EGFR DEL T790M PURO POOL cells, MTT; other: BAF3 EGFR DEL T790M PURO POOL cells; MTT
Described as above. The class given is cell-based. To be noted: BAF3 EGFR DEL T790M PURO POOL cells, read-out: IC50, BAF3 EGFR DEL T790M PURO POOL. The procedure, abridged: as §2

Assay [3] has as its target human EGFR (native sequence) (Homo sapiens, UniProt P00533). In words: Kinase inhibitory activity against human EGFR (native sequence). It is filed as biochemical. To be noted: 10 pt curves, 3 μM top concentration, 10 μM ATP; read-out: IC50 for kinase inhibition, EGFR. An outline of the steps:
as §1

Assay [4] relates to BaF3 cells expressing wildtype EGFR. In words: Antiproliferative activity (MTT) against control BaF3 cells expressing wildtype EGFR. It is filed as cell-based. To be noted: Mus musculus, BAF3 parental cells. The procedure, abridged: as §2

T2 sequence (P00533 with tags, fused parts or gaps DEL746-750/T790M, form open): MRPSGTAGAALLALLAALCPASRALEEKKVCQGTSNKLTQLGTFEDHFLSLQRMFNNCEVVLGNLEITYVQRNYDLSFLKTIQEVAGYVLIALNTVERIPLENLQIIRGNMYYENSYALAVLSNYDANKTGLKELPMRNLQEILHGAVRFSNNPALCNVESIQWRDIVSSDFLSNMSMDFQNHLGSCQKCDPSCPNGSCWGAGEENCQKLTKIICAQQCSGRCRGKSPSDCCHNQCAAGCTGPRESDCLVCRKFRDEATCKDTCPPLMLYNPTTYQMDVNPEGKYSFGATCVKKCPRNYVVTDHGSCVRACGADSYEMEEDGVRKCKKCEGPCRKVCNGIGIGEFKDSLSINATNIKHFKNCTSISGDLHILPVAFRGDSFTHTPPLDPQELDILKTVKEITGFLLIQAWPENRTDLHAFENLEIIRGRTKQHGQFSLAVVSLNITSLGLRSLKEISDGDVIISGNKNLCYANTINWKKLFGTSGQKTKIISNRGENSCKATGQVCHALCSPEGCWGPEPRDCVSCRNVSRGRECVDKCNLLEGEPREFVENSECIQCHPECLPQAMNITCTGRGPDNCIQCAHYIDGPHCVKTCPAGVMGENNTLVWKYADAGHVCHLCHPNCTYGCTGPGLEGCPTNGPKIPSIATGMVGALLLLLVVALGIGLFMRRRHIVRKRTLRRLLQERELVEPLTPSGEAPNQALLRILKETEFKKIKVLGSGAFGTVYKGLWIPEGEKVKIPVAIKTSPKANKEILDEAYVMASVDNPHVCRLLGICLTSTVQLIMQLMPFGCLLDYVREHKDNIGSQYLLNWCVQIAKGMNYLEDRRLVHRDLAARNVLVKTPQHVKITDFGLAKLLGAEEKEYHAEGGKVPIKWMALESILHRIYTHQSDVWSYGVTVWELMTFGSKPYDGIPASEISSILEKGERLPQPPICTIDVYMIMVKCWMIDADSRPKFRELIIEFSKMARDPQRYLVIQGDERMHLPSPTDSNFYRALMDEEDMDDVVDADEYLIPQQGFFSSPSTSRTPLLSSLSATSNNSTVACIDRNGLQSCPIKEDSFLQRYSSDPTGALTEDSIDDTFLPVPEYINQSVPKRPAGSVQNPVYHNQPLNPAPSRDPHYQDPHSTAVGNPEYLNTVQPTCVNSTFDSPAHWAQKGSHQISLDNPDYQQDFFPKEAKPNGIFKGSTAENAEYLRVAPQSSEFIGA
Chain of EGFR L858R/T790M (P00533 25-1210 T790M/L858R): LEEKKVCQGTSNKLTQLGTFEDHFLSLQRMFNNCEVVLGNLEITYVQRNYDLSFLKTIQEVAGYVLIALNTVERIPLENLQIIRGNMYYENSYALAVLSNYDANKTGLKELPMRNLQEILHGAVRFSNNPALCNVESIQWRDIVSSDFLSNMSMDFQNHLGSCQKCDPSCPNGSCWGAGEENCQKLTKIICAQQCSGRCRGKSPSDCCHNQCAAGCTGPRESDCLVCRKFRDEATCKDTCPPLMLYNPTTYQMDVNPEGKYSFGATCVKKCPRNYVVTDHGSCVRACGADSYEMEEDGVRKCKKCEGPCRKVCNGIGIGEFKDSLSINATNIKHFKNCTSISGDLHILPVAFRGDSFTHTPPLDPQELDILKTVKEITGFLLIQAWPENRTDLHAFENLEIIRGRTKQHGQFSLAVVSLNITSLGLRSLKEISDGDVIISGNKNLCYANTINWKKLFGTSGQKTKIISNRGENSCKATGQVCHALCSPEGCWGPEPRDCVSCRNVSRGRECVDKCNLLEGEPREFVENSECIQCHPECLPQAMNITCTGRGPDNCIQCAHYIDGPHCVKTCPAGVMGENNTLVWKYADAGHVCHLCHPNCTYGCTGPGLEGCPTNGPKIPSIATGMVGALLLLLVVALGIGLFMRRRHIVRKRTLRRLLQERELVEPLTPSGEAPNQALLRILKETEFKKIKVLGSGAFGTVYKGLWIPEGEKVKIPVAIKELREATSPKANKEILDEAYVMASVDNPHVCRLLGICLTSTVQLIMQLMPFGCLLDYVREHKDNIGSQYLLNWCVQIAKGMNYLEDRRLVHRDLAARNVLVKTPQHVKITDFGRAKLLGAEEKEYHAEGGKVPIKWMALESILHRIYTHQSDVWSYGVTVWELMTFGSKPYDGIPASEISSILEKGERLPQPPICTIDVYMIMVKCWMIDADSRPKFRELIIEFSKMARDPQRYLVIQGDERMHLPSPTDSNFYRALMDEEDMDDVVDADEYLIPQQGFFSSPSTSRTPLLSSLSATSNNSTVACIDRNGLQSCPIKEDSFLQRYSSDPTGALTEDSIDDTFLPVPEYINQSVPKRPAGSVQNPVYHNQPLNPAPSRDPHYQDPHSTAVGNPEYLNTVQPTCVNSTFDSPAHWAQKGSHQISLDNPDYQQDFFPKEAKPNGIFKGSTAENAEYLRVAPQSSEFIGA
T1 sequence (P00533 whole entry T790M/L858R): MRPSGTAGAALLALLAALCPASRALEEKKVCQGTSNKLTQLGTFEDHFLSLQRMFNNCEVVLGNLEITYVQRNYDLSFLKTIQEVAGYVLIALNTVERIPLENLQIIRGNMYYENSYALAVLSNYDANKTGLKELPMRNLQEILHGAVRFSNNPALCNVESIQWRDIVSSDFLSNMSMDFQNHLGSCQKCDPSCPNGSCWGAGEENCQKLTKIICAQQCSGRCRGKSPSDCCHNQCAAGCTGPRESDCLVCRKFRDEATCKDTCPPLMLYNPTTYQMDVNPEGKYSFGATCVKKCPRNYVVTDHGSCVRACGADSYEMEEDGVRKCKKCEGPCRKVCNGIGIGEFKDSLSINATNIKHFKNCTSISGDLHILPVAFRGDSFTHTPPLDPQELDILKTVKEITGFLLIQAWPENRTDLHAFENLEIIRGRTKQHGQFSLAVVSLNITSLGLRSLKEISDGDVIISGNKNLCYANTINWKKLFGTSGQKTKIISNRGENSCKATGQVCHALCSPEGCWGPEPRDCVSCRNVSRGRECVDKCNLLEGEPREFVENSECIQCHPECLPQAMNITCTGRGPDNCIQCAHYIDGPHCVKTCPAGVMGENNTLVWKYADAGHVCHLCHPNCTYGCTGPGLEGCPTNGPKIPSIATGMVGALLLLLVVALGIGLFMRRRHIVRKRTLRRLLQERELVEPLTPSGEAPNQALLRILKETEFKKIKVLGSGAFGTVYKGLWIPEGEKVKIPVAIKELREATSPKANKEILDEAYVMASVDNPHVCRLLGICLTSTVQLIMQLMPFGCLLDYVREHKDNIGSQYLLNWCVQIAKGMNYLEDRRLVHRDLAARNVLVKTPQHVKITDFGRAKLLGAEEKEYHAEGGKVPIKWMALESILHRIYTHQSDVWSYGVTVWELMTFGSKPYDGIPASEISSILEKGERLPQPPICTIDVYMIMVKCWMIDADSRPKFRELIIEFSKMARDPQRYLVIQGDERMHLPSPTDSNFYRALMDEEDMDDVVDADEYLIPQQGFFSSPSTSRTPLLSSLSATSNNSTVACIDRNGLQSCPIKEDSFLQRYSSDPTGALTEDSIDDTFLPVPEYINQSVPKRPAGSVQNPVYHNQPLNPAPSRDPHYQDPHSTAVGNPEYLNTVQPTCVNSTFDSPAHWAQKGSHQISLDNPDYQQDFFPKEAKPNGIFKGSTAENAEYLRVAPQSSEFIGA
Chain of EGFR L858R (P00533 25-1210 L858R): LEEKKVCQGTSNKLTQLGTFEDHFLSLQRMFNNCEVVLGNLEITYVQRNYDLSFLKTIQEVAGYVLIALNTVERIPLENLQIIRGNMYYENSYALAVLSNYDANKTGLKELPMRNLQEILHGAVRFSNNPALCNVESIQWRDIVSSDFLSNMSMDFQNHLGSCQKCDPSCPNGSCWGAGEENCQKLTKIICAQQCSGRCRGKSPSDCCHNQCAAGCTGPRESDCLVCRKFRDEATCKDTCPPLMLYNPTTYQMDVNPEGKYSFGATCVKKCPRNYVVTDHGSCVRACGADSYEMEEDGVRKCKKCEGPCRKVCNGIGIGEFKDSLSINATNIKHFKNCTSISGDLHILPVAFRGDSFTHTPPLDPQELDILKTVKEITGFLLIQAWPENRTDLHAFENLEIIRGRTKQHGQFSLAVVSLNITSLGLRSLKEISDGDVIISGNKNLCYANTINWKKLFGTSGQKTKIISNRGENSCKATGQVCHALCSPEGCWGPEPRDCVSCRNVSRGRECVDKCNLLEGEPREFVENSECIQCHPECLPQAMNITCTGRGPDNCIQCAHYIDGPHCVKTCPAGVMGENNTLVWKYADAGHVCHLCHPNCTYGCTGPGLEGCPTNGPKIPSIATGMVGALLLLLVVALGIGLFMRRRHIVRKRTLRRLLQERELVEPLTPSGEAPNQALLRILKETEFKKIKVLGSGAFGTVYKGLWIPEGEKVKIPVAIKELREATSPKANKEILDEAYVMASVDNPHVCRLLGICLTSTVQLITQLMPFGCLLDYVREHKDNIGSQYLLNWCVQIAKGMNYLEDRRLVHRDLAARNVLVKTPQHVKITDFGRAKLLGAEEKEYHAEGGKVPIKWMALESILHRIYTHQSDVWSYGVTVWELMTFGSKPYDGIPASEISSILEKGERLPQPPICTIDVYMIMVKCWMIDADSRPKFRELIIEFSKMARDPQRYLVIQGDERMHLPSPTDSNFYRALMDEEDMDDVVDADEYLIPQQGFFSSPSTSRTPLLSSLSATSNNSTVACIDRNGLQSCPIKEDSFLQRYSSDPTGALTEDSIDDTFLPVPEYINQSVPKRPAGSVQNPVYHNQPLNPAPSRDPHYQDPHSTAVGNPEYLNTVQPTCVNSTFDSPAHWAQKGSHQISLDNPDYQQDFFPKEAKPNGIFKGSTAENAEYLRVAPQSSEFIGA

A word on the IC50: it is the concentration at which inhibition is half-maximal. As to `CC#CC(=O)Nc1cc(Nc2ncc(Cl)c(Nc3ccccc3P(C)(C)=O)n2)c(OC)cc1OC1COC1` [Example 103, N-(5-((5-chloro-4-((2-(dimethylphosphoryl)phenyl)amino)pyrimidin-2-yl)amino)-4-methoxy-2-(oxetan-3-yloxy)phenyl)but-2-ynamide], the IC50 at EGFR L858R/T790M is 50 to 100 nM; at EGFR L858R, < 50 nM; in assay [3], ≥ 250 nM; in assay [4] it was ≥ 250 nM. Moreover, the GI50 in assay [1] was 50 to 100 nM; in assay [2] it was < 50 nM.
On to `CC#CC(=O)Nc1cc(Nc2ncc(Cl)c(Nc3ccccc3P(C)(C)=O)n2)c(OC)cc1N1CCC(N(C)C)C1` (stereo not drawn) [Example 112, N-(5-((5-chloro-4-((2-(dimethylphosphoryl)phenyl)amino)pyrimidin-2-yl)amino)-2-(3-(dimethylamino)pyrrolidin-1-yl)-4-methoxyphenyl)but-2-ynamide], for which the IC50 was < 50 nM on EGFR L858R/T790M, < 50 nM on EGFR L858R, < 50 nM in assay [3] and ≥ 250 nM in assay [4]. The GI50 was 50 to 100 nM in assay [1] and < 50 nM in assay [2].
As to `C=CC(=O)Nc1cc(Nc2ncc(Cl)c(Nc3ccccc3P(C)(C)=O)n2)c(OC)cc1C#CCN(C)CCOC` [Example 161, N-(5-((5-chloro-4-((2-(dimethylphosphoryl)phenyl)amino)pyrimidin-2-yl)amino)-4-methoxy-2-(3-((2-methoxyethyl)(methyl)amino)prop-1-yn-1-yl)phenyl)acrylamide], the half-inhibitory concentration (IC50) is < 50 nM on EGFR L858R/T790M, < 50 nM on EGFR L858R, < 50 nM in assay [3] and ≥ 250 nM in assay [4]. Further, the GI50 in assay [1] and in assay [2] was < 50 nM in each case.
Regarding `C=CC(=O)Nc1ccc(OC)c(Nc2cc(Nc3ncccc3P(C)(C)=O)ncn2)c1` [Example 163, N-(3-((6-((3-(dimethylphosphoryl)pyridin-2-yl)amino)pyrimidin-4-yl)amino)-4-methoxyphenyl)acrylamide], the IC50 at EGFR L858R/T790M is 101 to 250 nM; at EGFR L858R, < 50 nM; in assay [3], 50 to 100 nM; in assay [4], ≥ 250 nM. Moreover, the GI50 in assay [1] and in assay [2] was ≥ 250 nM each time.
As for `C=CC(=O)Nc1ccc(OC)c(Nc2ncc(Cl)c(Nc3ccc(OCCN(C)C)cc3P(C)(C)=O)n2)c1` [Example 125, N-(3-((5-chloro-4-((4-(2-(dimethylamino)ethoxy)-2-(dimethylphosphoryl)phenyl)amino)pyrimidin-2-yl)amino)-4-methoxyphenyl)acrylamide], the half-inhibitory concentration (IC50) was < 50 nM at EGFR L858R/T790M, < 50 nM on EGFR L858R, < 50 nM in assay [3] and ≥ 250 nM in assay [4]. Further, the GI50 in assay [1] and in assay [2] was < 50 nM in each case.
`C=CC(=O)Nc1cc(Nc2ncc(Cl)c(Nc3ccccc3P(C)(C)=O)n2)c(OC)cc1C#CCN1CCN(C)CC1` [Example 159, N-(5-((5-chloro-4-((2-(dimethylphosphoryl)phenyl)amino)pyrimidin-2-yl)amino)-4-methoxy-2-(3-(4-methylpiperazin-1-yl)prop-1-yn-1-yl)phenyl)acrylamide]: the IC50 at EGFR L858R/T790M was < 50 nM; at EGFR L858R, < 50 nM; in assay [3], < 50 nM; in assay [4], ≥ 250 nM. In addition, the GI50 in assay [1] is 101 to 250 nM; in assay [2], < 50 nM.
